Experimental data from US10077261B2, “Imidazolin-5-one derivative useful as FASN inhibitors for the treatment of cancer” (Janssen Pharmaceutica NV, priority 2012, dated 2018).

Assays:
[1] = system: LNCaP-Vancouver prostate cells; experiment: In vitro LNCaP Vancouver prostate cell proliferation assay in lipid reduced medium; type: cell-based; settings: read-out: pIC50 LNCaP_Vancouver prostate cell (converted)
[2] = target: T1, hFASN enzyme (full length) (Homo sapiens, UniProt P49327); experiment: Fatty Acid Synthase (FASN) inhibition scintillation proximity assay; type: biochemical; settings: for inhibition at 10 µM: read-out: Human FASN % inhibition @ 10 μM, 10 μM test compound; for IC50: read-out: Human FASN pIC50 (converted)
T1 construct: 10 μL hFASN enzyme (full length, 300 ng, purified in house); made in house
T1 sequence (P49327 whole entry): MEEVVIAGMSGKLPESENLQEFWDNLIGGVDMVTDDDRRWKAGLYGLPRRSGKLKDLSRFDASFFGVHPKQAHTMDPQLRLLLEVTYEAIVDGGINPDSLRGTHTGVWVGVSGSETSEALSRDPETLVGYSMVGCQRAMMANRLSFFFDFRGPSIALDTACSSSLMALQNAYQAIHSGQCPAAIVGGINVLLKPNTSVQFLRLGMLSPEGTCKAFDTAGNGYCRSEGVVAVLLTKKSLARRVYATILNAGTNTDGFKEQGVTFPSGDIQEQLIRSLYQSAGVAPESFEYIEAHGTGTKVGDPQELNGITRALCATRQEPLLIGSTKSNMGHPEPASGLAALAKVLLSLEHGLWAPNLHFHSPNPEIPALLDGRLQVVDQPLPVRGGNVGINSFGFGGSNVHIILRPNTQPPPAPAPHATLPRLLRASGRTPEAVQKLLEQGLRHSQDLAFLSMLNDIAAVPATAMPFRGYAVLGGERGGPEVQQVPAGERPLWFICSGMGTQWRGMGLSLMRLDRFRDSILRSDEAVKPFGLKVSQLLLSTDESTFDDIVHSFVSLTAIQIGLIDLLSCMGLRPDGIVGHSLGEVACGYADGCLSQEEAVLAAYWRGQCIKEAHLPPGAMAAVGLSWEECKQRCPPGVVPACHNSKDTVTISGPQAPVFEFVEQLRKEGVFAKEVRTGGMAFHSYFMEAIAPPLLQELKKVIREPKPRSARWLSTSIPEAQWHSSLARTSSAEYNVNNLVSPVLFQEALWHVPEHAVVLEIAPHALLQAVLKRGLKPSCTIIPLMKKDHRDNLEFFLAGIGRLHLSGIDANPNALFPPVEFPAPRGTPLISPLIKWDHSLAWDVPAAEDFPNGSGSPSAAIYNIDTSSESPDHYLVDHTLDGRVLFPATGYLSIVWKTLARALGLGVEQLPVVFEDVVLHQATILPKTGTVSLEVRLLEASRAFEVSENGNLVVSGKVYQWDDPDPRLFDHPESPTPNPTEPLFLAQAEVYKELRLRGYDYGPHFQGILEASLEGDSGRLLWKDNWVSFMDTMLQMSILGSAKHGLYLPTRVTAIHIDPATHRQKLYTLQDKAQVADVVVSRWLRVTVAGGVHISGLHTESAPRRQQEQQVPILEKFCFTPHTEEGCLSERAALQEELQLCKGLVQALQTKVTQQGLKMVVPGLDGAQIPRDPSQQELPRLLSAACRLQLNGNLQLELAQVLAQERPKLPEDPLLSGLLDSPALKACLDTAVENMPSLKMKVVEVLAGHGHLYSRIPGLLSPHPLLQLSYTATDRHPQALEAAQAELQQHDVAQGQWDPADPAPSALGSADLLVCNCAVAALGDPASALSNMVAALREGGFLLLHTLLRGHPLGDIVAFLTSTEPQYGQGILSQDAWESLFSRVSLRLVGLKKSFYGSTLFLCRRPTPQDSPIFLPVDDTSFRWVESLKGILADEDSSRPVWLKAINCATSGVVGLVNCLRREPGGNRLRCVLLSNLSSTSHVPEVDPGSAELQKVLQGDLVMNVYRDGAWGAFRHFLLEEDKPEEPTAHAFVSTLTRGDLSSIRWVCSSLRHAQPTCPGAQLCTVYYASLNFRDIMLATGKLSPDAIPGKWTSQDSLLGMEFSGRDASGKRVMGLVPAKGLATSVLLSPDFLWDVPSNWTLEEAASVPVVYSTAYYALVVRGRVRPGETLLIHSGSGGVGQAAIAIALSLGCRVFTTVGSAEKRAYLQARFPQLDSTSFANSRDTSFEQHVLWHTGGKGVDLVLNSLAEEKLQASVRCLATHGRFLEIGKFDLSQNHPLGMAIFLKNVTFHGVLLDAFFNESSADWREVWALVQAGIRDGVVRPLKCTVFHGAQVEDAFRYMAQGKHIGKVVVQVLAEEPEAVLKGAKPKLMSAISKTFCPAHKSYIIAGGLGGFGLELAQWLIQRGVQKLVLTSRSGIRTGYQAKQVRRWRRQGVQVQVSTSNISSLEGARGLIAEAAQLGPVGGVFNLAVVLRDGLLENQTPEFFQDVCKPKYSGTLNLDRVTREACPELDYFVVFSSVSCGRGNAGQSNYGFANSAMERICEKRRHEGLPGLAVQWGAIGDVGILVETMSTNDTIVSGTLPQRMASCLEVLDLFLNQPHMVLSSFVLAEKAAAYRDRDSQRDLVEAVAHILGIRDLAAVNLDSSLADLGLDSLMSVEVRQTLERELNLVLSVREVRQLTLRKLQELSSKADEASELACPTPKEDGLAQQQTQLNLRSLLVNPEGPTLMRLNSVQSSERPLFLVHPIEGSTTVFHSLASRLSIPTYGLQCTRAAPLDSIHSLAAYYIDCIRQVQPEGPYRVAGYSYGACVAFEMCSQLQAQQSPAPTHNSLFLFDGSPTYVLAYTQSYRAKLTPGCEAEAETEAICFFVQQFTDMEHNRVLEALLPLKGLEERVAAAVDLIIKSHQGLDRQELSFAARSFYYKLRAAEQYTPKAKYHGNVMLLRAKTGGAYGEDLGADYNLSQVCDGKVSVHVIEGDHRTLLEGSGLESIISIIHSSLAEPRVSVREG
In short: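 Scintillation proximity format: in-house full-length enzyme, 300 ng per well, pH 7.5 phosphate/DTT buffer, ³H-acetyl-CoA and malonyl-CoA. Emission counted on LEADseeker at 610 nm at least 24 h after stopping.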

[3] = system: PC-3M-Luc-C6 prostate cells; experiment: In vitro PC-3M-Luc-C6 prostate cell proliferation assay in lipid reduced medium; type: cell-based; settings: 96 h, read-out: pIC50 PC-3M-Luc-C6 prostate cell (converted)
[4] = system: A2780 ovarian cells; experiment: A2780 ovarian cell proliferation assay in lipid reduced medium, with palmitate (MTT); type: cell-based; settings: Homo sapiens, A2780, 96 h; read-out: pIC50 A2780 Ovarian Cell, With Palmitate (converted)
In short: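 In this palmitate-supplemented format, compound dilutions (30 μM down to 0.01 μM) are added to cells in lipid-reduced serum with 25 μM palmitate, 0.2% fatty-acid-free BSA and 0.25% ethanol. After four days (96 h) MTT absorbance at 544 nm is recorded and fitted by minimum sum of squares.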

[5] = target: Fatty Acid Synthase Keto-reductase Domain (FASN KR) (Homo sapiens, UniProt P49327); experiment: Fatty Acid Synthase keto-reductase domain (FASN KR) inhibition, NADPH oxidation at 340 nm
Chain of Fatty Acid Synthase Keto-reductase Domain (FASN KR) (P49327 whole entry, the tested form may be a part): as the sequence (P49327 whole entry) above
Experimental: After 20 minutes incubation at room temperature the plate was measured again (T2).
The decrease in absorbance was calculated as (Absorbance before incubation T1)−(Absorbance following incubation T2).
A plot of Controlmin versus test compound concentration was fitted to a 4-parameter logistic curve using a non-linear least squares regression method.

[6] = system: A2780 ovarian cells; experiment: A2780 ovarian cell proliferation assay in lipid reduced medium, without palmitate (MTT); type: cell-based; settings: Homo sapiens, A2780, 96 h; read-out: pIC50 A2780 Ovarian Cell, Without Palmitate (converted)

| IC50 [1] [nM] | inhibition at 10 µM [2] [%] | IC50 [2] [nM] | IC50 [3] [nM] | IC50 [4] [nM] | IC50 [5] [nM] | IC50 [6] [nM] | SMILES |
| --- | --- | --- | --- | --- | --- | --- | --- |
| 4570 | 83 | 1100 | 2000 | > 10000 | 4570 | 1100 | Cc1cc(-c2ccc3ccc(C(N)=O)nc3c2)ccc1C1=NC2(CC2)C(=O)N1CC1CN(C(=O)C2(C)CC2)C1 [compound 579, 7-{3-Methyl-4-[6-({1-[(1-methylcyclopropyl)carbonyl]azetidin-3-yl}methyl)-7-oxo-4,6-diazaspiro[2.4]hept-4-en-5-yl]phenyl}quinoline-2-carboxamide] |
| 3240 | 103 | 324 | 794 | > 10000 | 1200 | ~631 | Cc1cc(-c2ccc3c(c2)cc(C)n3C)ccc1C1=NC2(CC2)C(=O)N1CC1CN(C(=O)C2CC2)C1 [compound 582, 6-{[1-(Cyclopropylcarbonyl)azetidin-3-yl]methyl}-5-[4-(1,2-dimethyl-1H-indol-5-yl)-2-methylphenyl]-4,6-diazaspiro[2.4]hept-4-en-7-one] |
| 646 | 91 | 135 | 83.2 | 6610 | 170 | 63.1 | Cn1ncc2cc(-c3ccc(C4=NC5(CC5)C(=O)N4CC4CN(C(=O)C5CC5)C4)c(Cl)c3)ccc21 [compound 584, 5-[2-Chloro-4-(1-methyl-1H-indazol-5-yl)phenyl]-6-{[1-(cyclopropylcarbonyl)azetidin-3-yl]methyl}-4,6-diazaspiro[2.4]hept-4-en-7-one] |
| 1910 | 102 | 245 | ~589 | > 10000 | 1070 | 617 | Cc1cc(-c2ccc3ccc(Cl)nc3c2)ccc1C1=NC2(CC2)C(=O)N1CC1CN(C(=O)C2(C)CC2)C1 [compound 594, 5-[4-(2-Chloroquinolin-7-yl)-2-methylphenyl]-6-({1-[(1-methylcyclopropyl)carbonyl]azetidin-3-yl}methyl)-4,6-diazaspiro[2.4]hept-4-en-7-one] |
| 2340 | 103 | 209 | ~355 | > 10000 | 309 | 200 | Cc1cc(-c2cccc3nn(C)cc23)ccc1C1=NC2(CC2)C(=O)N1CC1CN(C(=O)C2(C)CC2)C1 [compound 598, 6-({1-[(1-Methylcyclopropyl)carbonyl]azetidin-3-yl}methyl)-5-[2-methyl-4-(2-methyl-2H-indazol-4-yl)phenyl]-4,6-diazaspiro[2.4]hept-4-en-7-one] |
| 2240 | 98 | 417 | 501 | > 10000 | 1200 | ~603 | Cc1cc(-c2nn(C)c3ccccc23)ccc1C1=NC2(CC2)C(=O)N1CC1CN(C(=O)C2(C)CC2)C1 [compound 600, 6-({1-[(1-Methylcyclopropyl)carbonyl]azetidin-3-yl}methyl)-5-[2-methyl-4-(1-methyl-1H-indazol-3-yl)phenyl]-4,6-diazaspiro[2.4]hept-4-en-7-one] |
| 1020 | 100 | 186 | 316 | 3890 | 501 | 219 | Cc1cc(-c2ccc(-c3ccn(CC4CC4)n3)cc2)ccc1C1=NC2(CC2)C(=O)N1CC1CN(C(=O)C2(C)CC2)C1 [compound 601, 5-{4′-[1-(Cyclopropylmethyl)-1H-pyrazol-3-yl]-3-methylbiphenyl-4-yl}-6-({1-[(1-methylcyclopropyl)carbonyl]azetidin-3-yl}methyl)-4,6-diazaspiro[2.4]hept-4-en-7-one] |
